These results are taken from ChEMBL document CHEMBL3856270, “Structure-activity relationship of cyclic pentapeptide malformins as fibrinolysis enhancers” (Bioorg Med Chem Lett, 2016).

In data set [1] the test system is U-937. The experiment in a line: Pro-fibrinolytic activity in human U937 cells supplemented with human platelet-poor plasma assessed as [125I]-fibrin degradation up to 5 uM after 3 hrs by gamma counting method. The data set is classed as functional, cell-based.
Data set [2] in a line: Cytotoxicity against human U937 cells assessed as reduction in cell viability after 24 hrs by MTT assay. As to conditions: for IC50 at 24 h: human, U937 cells. The data set is classed as toxicity, cell-based, U-937. For orientation: Tetrazolium assays rely on reduction of a dye to a coloured formazan, in cell work by metabolically active cells.
In data set [3] the test system is U-937. Put plainly: Pro-fibrinolytic activity in human U937 cells supplemented with human platelet-poor plasma assessed as [125I]-fibrin degradation after 3 hrs by gamma counting method. The data set is classed as functional, cell-based.
In data set [4] the test system is U-937. Put plainly: Pro-fibrinolytic activity in human U937 cells supplemented with human platelet-poor plasma assessed as [125I]-fibrin degradation at >20 uM after 3 hrs by gamma counting method. The format is functional, cell-based.

The structures appear in SMILES notation. Calls of active or inactive are those of the source. No cut-off for these calls is given here. Where only a bound is given, the exact number is not on record here.

In general, IC50 refers to the concentration needed to halve the response being measured. `CC[C@H](C)[C@@H]1NC(=O)[C@@H](Cc2ccccc2)NC(=O)[C@H](C(C)C)NC(=O)[C@H]2CSSC[C@@H](NC1=O)C(=O)N2`: in data set [1], the result was Active. In addition, the IC50 at 24 h in data set [2] was 1.3 µM.
With `CC[C@H](C)[C@@H]1NC(=O)[C@@H](CC(C)C)NC(=O)[C@H](C(C)C)NC(=O)[C@@H](CSC(c2ccccc2)(c2ccccc2)c2ccccc2)NC(=O)[C@@H](CSC(c2ccccc2)(c2ccccc2)c2ccccc2)NC1=O`, the IC50 at 24 h in data set [2] is above 5 µM.
For `CC[C@H](C)[C@@H]1NC(=O)[C@@H](CC(C)C)NC(=O)[C@H](C(C)C)NC(=O)[C@H]2CSSC[C@@H](NC1=O)C(=O)N2` (stereo in doubt; form 2) [listing 1 of 2 here], in data set [3], the Activity result was “Dose-dependent effect”.
`CC[C@H](C)[C@@H]1NC(=O)[C@@H](CC(C)C)NC(=O)[C@H](C(C)C)NC(=O)[C@H]2CSSC[C@@H](NC1=O)C(=O)N2` (stereo in doubt; form 1) [listing 1 of 2 here]: the Activity result in data set [3] was “Dose-dependent effect”.
With `CC[C@H](C)[C@@H]1NC(=O)[C@@H](CC(C)C)NC(=O)[C@H](C(C)C)NC(=O)[C@@H](CSC)NC(=O)[C@@H](CSC)NC1=O`, in data set [2], the IC50 at 24 h was above 5 µM.
For `CC[C@H](C)[C@@H]1NC(=O)[C@@H](CC(C)C)NC(=O)[C@H](C(C)C)NC(=O)[C@@H](CS)NC(=O)[C@@H](CS)NC1=O`, in data set [4], the outcome was Active. Besides, the IC50 at 24 h in data set [2] was above 5 µM.
With `CC(C)C[C@H]1NC(=O)[C@H](C(C)C)NC(=O)[C@H]2CSSC[C@@H](NC(=O)[C@H](CCCCNC(=O)OC(C)(C)C)NC1=O)C(=O)N2`, the result in data set [1] was Active. Further, the IC50 at 24 h in data set [2] is below 0.1 µM.
Take `CC[C@H](C)[C@@H]1NC(=O)[C@@H](C)NC(=O)[C@H](C(C)C)NC(=O)[C@H]2CSSC[C@@H](NC1=O)C(=O)N2`: the outcome in data set [1] was Active. The IC50 at 24 h in data set [2] stood at 2.2 µM.
`CC[C@H](C)[C@H](N)C(=O)N[C@@H]1CSSC[C@H](C(=O)N[C@H](C(=O)N[C@H](CC(C)C)C(=O)O)C(C)C)NC1=O`: the IC50 at 24 h in data set [2] is above 5 µM.
Regarding `CC[C@H](C)[C@@H]1NC(=O)[C@@H](CC(C)C)NC(=O)[C@H](C)NC(=O)[C@H]2CSSC[C@@H](NC1=O)C(=O)N2`, the IC50 at 24 h in data set [2] is 1.4 µM.
Consider `CC[C@H](C)[C@@H]1NC(=O)[C@@H](CC(C)C)NC(=O)[C@H](Cc2ccccc2)NC(=O)[C@H]2CSSC[C@@H](NC1=O)C(=O)N2`, for which the outcome in data set [1] was Active. The IC50 at 24 h in data set [2] is below 0.1 µM.
Consider `N[C@@H]1CSSC[C@H](C(=O)O)NC1=O`, for which the IC50 at 24 h in data set [2] is above 5 µM.
`CC[C@H](C)[C@@H]1NC(=O)[C@@H](CC(C)C)NC(=O)[C@H](C(C)C)NC(=O)[C@H]2CSSC[C@@H](NC1=O)C(=O)N2` (stereo in doubt; form 2) [listing 2 of 2 here]: in data set [2], the IC50 at 24 h amounted to 0.76 µM.
On to `CC[C@H](C)[C@@H]1NC(=O)[C@@H](CC(C)C)NC(=O)[C@H](C(C)C)NC(=O)[C@H]2CSSC[C@@H](NC1=O)C(=O)N2` (stereo in doubt; form 1) [listing 2 of 2 here], for which, in data set [2] (u-937), the IC50 was found to be 0.8 µM.
On to `CC[C@H](C)[C@@H]1NC(=O)[C@@H](CC(C)C)NC(=O)[C@H](CCCCNC(=O)OC(C)(C)C)NC(=O)[C@H]2CSSC[C@@H](NC1=O)C(=O)N2`, for which the outcome in data set [1] was Active. Besides, in data set [2], the 50% inhibitory concentration (IC50) at 24 h was below 0.1 µM.
As to `CC(C)C[C@H]1NC(=O)[C@H](C(C)C)NC(=O)[C@H]2CSSC[C@@H](NC(=O)[C@H](CCCCN)NC1=O)C(=O)N2`, the IC50 at 24 h in data set [2] was above 5 µM.
In the case of `CC(C)C[C@H]1NC(=O)[C@H](C(C)C)NC(=O)[C@H]2CSSC[C@@H](NC(=O)[C@H](C)NC1=O)C(=O)N2`, the outcome in data set [1] was Active. Besides, the IC50 at 24 h in data set [2] was determined as 2.8 µM.
For `CC[C@H](C)[C@@H]1NC(=O)[C@@H](CCCCN)NC(=O)[C@H](C(C)C)NC(=O)[C@H]2CSSC[C@@H](NC1=O)C(=O)N2`, in data set [2], the IC50 at 24 h is above 5 µM.
In the case of `CC[C@H](C)[C@@H]1NC(=O)[C@@H](CCCCNC(=O)OC(C)(C)C)NC(=O)[C@H](C(C)C)NC(=O)[C@H]2CSSC[C@@H](NC1=O)C(=O)N2`, the outcome in data set [1] was Active. Besides, the IC50 at 24 h in data set [2] stood at 0.2 µM.
Take `CC[C@H](C)[C@@H]1NC(=O)[C@@H](CC(C)C)NC(=O)[C@H](CCCCN)NC(=O)[C@H]2CSSC[C@@H](NC1=O)C(=O)N2`: the 50% inhibitory concentration (IC50) at 24 h in data set [2] was above 5 µM.
With `CC(C)C[C@H]1NC(=O)[C@H](C(C)C)NC(=O)[C@H]2CSSC[C@@H](NC(=O)[C@H](Cc3ccccc3)NC1=O)C(=O)N2`, the result in data set [1] was Active. In addition, the IC50 at 24 h in data set [2] is below 0.1 µM.
